Data on six molecules can be found in US20250303005A1, “PROSTATE SPECIFIC MEMBRANE ANTIGEN (PSMA) LIGANDS WITH IMPROVED RENAL CLEARANCE” (Deutsches Krebsforschungszentrum Stiftung des öffentlichen …, priority 2022, published 2025).

SMILES strings stand for the structures. Where two headings read alike, the source gives them in different places. Starred links: 1 amine or outer side, 2 acyl side, 3 side chain; linkers in the order of their positions; H or OH if unused. Non-standard residues stand in square brackets, D forms with d. Residues, ends and D or L forms follow the SMILES beside them. ξ: configuration not given here. *: point of attachment. DOTA = O=C(O)CN1CCN(CC(=O)O)CCN(CC(=O)*)CCN(CC(=O)O)CC1; EuK = O=C(O)CC[C@H](NC(=O)N[C@@H](CCCCN*)C(=O)O)C(=O)O; X2 = O=C(O)CCC(NC(=O)NC(CCCCN*)C(=O)O)C(=O)O; 2Nal = N[C@@H](Cc1ccc2ccccc2c1)C(=O)O; ξ2Nal = NC(Cc1ccc2ccccc2c1)C(=O)O; Trx = NC[C@H]1CC[C@H](C(=O)O)CC1; X1 = O=C(C1CCC(CN[*:1])CC1)[*:2]; Sar = CNCC(=O)O

Test [1] concerns prostate cancer patients. To be noted: two patients with extremely advanced and end-stage disease; cited from earlier work.
Test [2] addresses T1, PSMA (Homo sapiens, UniProt Q04609).
T1 construct: in vitro using PSMA^+-cells (LNCaP); host or cells: LNCaP
The test can be described thus: Competitive cell binding assay against 68Ga-PSMA-10 on LNCaP cells. On the procedure: PSMA+LNCaP cells (CRL-1740; ATCC; PSMA-positive) and PC-3 cells (CRL-1435; ATCC; PSMA-negative) were cultured in RPMI medium supplemented with 10% fetal calf serum and 2 mmol/L L-glutamine (all from PAA). Cells were grown at 37° C. in humidified air with 5% CO2 and were harvested using trypsin-ethylenediaminetetraacetic acid (trypsin-EDTA; 0.25% trypsin, 0.02% EDTA, Invitrogen). The competitive cell binding assay and internalization experiments were performed as described previously (2). For competitive cell binding, the cells (10^5 per well) were incubated with a 0.8 nM solution of ^68Ga-labeled radioligand [Glu-urea-Lys(Ahx)]2-HBED-CC (PSMA-10, precursor ordered from ABX, Radeberg, Germany) in the presence of 12 different concentrations of DOTA-compound (0-5000 nM, 100 μL/well). After incubation, the mixture was removed and the wells were washed 3 times with PBS using a multiscreen vacuum manifold (Millipore, Billerica, MA). Cell-bound radioactivity was measured using a gamma counter (Perkin Elmer 2480, Wizard, Gamma Counter). The 50% inhibitory concentration (IC50) values were calculated by fitting the data using a nonlinear regression algorithm (GraphPad Software) (see Table 2)

The test system of test [3] is PSMA+LNCaP cells. The test is described as follows: Cell surface binding and internalization of 177Lu labeled compounds, without or with blocking by 2-PMPA. It counts as cell-based. To be noted: 7.5 pmol precursor per 10^5 cells, 45 min; for Internalization Block / Surface Block: with blocking by 500 μM 2-PMPA (n = 3); for Internalization / Surface: without blocking (n = 3). On the procedure:
(§1) PSMA+LNCaP cells (CRL-1740; ATCC; PSMA-positive) and PC-3 cells (CRL-1435; ATCC; PSMA-negative) were cultured in RPMI medium supplemented with 10% fetal calf serum and 2 mmol/L L-glutamine (all from PAA). Cells were grown at 37° C. in humidified air with 5% CO2 and were harvested using trypsin-ethylenediaminetetraacetic acid (trypsin-EDTA; 0.25% trypsin, 0.02% EDTA, Invitrogen).
(§2) For internalization experiments, 10^5 cells per well were seeded in poly-L-lysine coated 24-well cell culture plates 24 h before incubation. After washing, the cells were incubated with 30 nM of the radiolabeled DOTA-compound (radiolabeled with ^68Ga or ^177Lu) for 45 min at 37° C. (labeling was performed with 5 nmol of precursor peptide). Specific cell uptake was determined by blockage using 500 μM 2-PMPA (2-(phosphonomethyl)pentanedioic acid). Cellular uptake was terminated by washing 3 times with 1 mL of ice-cold PBS. To remove surface-bound radioactivity, cells were incubated twice with 0.5 mL glycine-HCl in PBS (50 mM, pH=2.8) for 5 min. The cells were washed with 1 mL of ice-cold PBS and lysed using 0.3 N NaOH (0.5 mL). The surface-bound and the internalized fractions were measured in a gamma counter. The cell uptake was calculated as percent of the initially added radioactivity bound to 10^5 cells [% ID/10^5 cells] (see Table 2 and Table 2a).

The test system of test [4] is PSMA+LNCaP cells. The test is described as follows: Cell surface binding and internalization of 68Ga-labeled compounds. It counts as cell-based. To be noted: specific uptake by blockage with 500 μM 2-PMPA, mean ± SD (n = 3). On the procedure: as §1, §2
The mark [5] stands for this setting: free ligands, LNCaP, radioligand 68Ga-PSMA-10 0.8 nM, mean ± SD (n = 3), read-out: ki free ligands.

T1 sequence (Q04609 whole entry): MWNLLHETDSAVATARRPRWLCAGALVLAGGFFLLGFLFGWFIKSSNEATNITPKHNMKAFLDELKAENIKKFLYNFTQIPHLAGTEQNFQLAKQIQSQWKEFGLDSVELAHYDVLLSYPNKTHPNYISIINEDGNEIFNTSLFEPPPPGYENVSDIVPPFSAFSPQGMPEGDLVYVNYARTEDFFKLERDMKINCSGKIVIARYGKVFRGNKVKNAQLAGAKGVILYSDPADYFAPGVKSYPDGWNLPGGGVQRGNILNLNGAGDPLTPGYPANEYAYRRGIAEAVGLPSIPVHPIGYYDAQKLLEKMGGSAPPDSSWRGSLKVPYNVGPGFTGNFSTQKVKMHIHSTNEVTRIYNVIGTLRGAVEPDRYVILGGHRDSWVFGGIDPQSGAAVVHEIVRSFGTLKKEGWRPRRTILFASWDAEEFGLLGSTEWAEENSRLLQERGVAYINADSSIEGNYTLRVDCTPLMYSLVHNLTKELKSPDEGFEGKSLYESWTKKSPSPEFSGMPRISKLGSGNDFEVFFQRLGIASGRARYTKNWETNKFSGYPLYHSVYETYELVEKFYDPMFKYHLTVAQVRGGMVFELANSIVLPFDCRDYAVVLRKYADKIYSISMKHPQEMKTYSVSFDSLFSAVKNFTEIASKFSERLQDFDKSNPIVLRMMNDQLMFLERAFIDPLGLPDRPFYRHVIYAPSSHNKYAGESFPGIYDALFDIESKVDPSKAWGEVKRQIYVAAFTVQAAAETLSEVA

`O=C([O-])CC[C@H](NC(=O)N[C@@H](CCCCNC(=O)[C@H](Cc1ccc2ccccc2c1)NC(=O)C1CCC(CNC(=O)CN2CCN(CC(=O)[O-])CCN(CC(=O)[O-])CCN(CC(=O)[O-])CC2)CC1)C(=O)[O-])C(=O)[O-].[225Ac].[H+].[H+].[H+]` (stereo partly shown) [225Ac-PSMA-617]: in test [1], the Response in patients result was “complete remission”.

In general, Ki refers to a measure of affinity in units of concentration, obtained from inhibition or displacement. In test [2], `CN(CC(=O)NC[C@H]1CC[C@H](C(=O)N[C@@H](Cc2ccc3ccccc3c2)C(=O)NCCCC[C@H](NC(=O)N[C@@H](CCC(=O)O)C(=O)O)C(=O)O)CC1)C(=O)CN(C)C(=O)CN(C)C(=O)CN1CCN(CC(=O)O)CCN(CC(=O)O)CCN(CC(=O)O)CC1` [DOTA-Sar3-Chx-2-NaI-Lys-urea-Glu] ({DOTA}-[Sar][Sar][Sar][Trx][2Nal]-EuK) had an inhibition constant (Ki) of 29.7 ± 24.2 nM. For the same molecule, in test [3], the “Internalization Block” value was found to be 0.01 ± 0.01 % AR/10^5 cells, the “Surface Block” value is given as 0.03 ± 0.01 % AR/10^5 cells, the Internalization is 0.13 ± 0.08 % AR/10^5 cells and the Surface stood at 0.65 ± 0.15 % AR/10^5 cells. In addition, in test [4], the “Specifically cell surface bound” value worked out at 4.42 ± 2.05 % AR/10^5 cells and the Specifically internalized came out at 2.20 ± 0.98 % AR/10^5 cells.

For `CN(CC(=O)NCC1CCC(C(=O)NC(Cc2ccc3ccccc3c2)C(=O)NCCCCC(NC(=O)NC(CCC(=O)O)C(=O)O)C(=O)O)CC1)C(=O)CN(C)C(=O)CN(C)C(=O)CN(C)C(=O)CN(C)C(=O)CN1CCN(CC(=O)O)CCN(CC(=O)O)CCN(CC(=O)O)CC1` (stereo not shown) [DOTA-Sar5-Chx-2-NaI-Lys-urea-Glu] ({DOTA}-[Sar][Sar][Sar][Sar][Sar][X1][ξ2Nal]-X2), the Ki in test [2] (setting [5]) turned out to be 54.3 ± 33.6 nM. Also, in test [3], the “Internalization Block” value came out at 0.00 ± 0.00 % AR/10^5 cells, the “Surface Block” value is on record as 0.02 ± 0.01 % AR/10^5 cells, the Internalization is listed as 0.10 ± 0.06 % AR/10^5 cells and the Surface is 0.47 ± 0.12 % AR/10^5 cells. Also, in test [4], the “Specifically cell surface bound” value came to 2.79 ± 0.50 % AR/10^5 cells and the Specifically internalized is given as 1.99 ± 1.15 % AR/10^5 cells.

In the case of `CN(CC(=O)NCC1CCC(C(=O)NC(Cc2ccc3ccccc3c2)C(=O)NCCCCC(NC(=O)NC(CCC(=O)O)C(=O)O)C(=O)O)CC1)C(=O)CN(C)C(=O)CN(C)C(=O)CN(C)C(=O)CN(C)C(=O)CN(C)C(=O)CN(C)C(=O)CN(C)C(=O)CN(C)C(=O)CN(C)C(=O)CN1CCN(CC(=O)O)CCN(CC(=O)O)CCN(CC(=O)O)CC1` (stereo not shown) [DOTA-Sar10-Chx-2-NaI-Lys-urea-Glu], the Ki in test [2] (setting [5]) is 96.8 ± 96.4 nM. Moreover, in test [3], the “Internalization Block” value was 0.00 ± 0.00 % AR/10^5 cells, the “Surface Block” value is 0.03 ± 0.02 % AR/10^5 cells, the Internalization is reported as 0.10 ± 0.06 % AR/10^5 cells and the Surface stood at 0.45 ± 0.08 % AR/10^5 cells. Further, in test [4], the “Specifically cell surface bound” value is listed as 3.66 ± 1.31 % AR/10^5 cells and the Specifically internalized is on record as 2.31 ± 0.90 % AR/10^5 cells.

Regarding `CN(CC(=O)NCC1CCC(C(=O)NC(Cc2ccc3ccccc3c2)C(=O)NCCCCC(NC(=O)NC(CCC(=O)O)C(=O)O)C(=O)O)CC1)C(=O)CN(C)C(=O)CN(C)C(=O)CN(C)C(=O)CN(C)C(=O)CN(C)C(=O)CN(C)C(=O)CN(C)C(=O)CN(C)C(=O)CN(C)C(=O)CN(C)C(=O)CN(C)C(=O)CN(C)C(=O)CN(C)C(=O)CN(C)C(=O)CN1CCN(CC(=O)O)CCN(CC(=O)O)CCN(CC(=O)O)CC1` (stereo not shown) [DOTA-Sar15-Chx-2-NaI-Lys-urea-Glu], in test [2] (setting [5]), the Ki was found to be 74.7 ± 36 nM. In test [3], the “Internalization Block” value is 0.00 ± 0.00 % AR/10^5 cells, the “Surface Block” value stood at 0.02 ± 0.01 % AR/10^5 cells, the Internalization came to 0.11 ± 0.05 % AR/10^5 cells and the Surface turned out to be 0.52 ± 0.03 % AR/10^5 cells. Besides, in test [4], the “Specifically cell surface bound” value is given as 3.71 ± 1.55 % AR/10^5 cells and the Specifically internalized is reported as 2.03 ± 1.71 % AR/10^5 cells.

As for `O=C(O)CC[C@H](NC(=O)N[C@@H](CCCCNC(=O)[C@H](Cc1ccc2ccccc2c1)NC(=O)[C@H]1CC[C@H](CNC(=O)CN2CCN(CC(=O)O)CCN(CC(=O)O)CCN(CC(=O)O)CC2)CC1)C(=O)O)C(=O)O` [PSMA-617, reference compound], in test [4], the “Specifically cell surface bound” value came out at 3.47 ± 1.53 % AR/10^5 cells and the Specifically internalized was found to be 2.55 ± 1.97 % AR/10^5 cells.
